Values quoted from earlier work, collected in patent publication US20050013753A1, “Heat-transfer systems” (priority 2003, published 2005).
Like-named read-outs stand apart in the source and are kept apart here.

How the values were obtained:
rats [1] = details: repeated inhalation exposure
[2] = animal data; DuPont MSDS
rats [3] = details: in rats; DuPont MSDS
mouse = details: in vivo mouse
rats [4] = test system: rats
[5] = in water; DuPont MSDS
mammalian cells [6] = test system: mammalian cells
rats [7] = details: in rats, DuPont MSDS
mammalian cells [8] = details: in vitro
rabbits = details: in rabbits; DuPont MSDS
[9] = animal data
bacterial cells = details: in vitro
[10] = animal data; DuPont MSDS; remark: listed apart in the source
[11] = animal data; DuPont MSDS; remark: listed apart in the source
[12] = DuPont MSDS

## OCCCO [1,3-Propanediol, 1,3-propanediol]
Rats [1]
  Changes in clinical pathology, pathology, or in-life measurements: no toxicologically important changes
  NOEL: 1800 mg/m3
[2]
  Skin sensitization: not a skin sensitizer.
Rats [3]
  Oral LD50: 15,000 mg/kg
mouse
  Micronucleus assay result: negative
Rats [4]; oral repeated dose study in rats
  Adverse effects to sperm and reproductive organs: no adverse effects to sperm and reproductive organs were observed
Rats [4]; rats, repeated oral gavage
  Changes in clinical pathology, pathology (including sperm analyses), or in-life measurements: no toxicologically important changes
Rats [4]; rats, repeated oral gavage, highest dose tested
  NOEL: 1000 mg/kg/day
[5]
  pH: pH: 4.5-7 in water. Color: Colorless.
Mammalian cells [6]; 1,3-propanediol manufactured by DuPont
  Chromosome aberrations, repeat study: negative for all test conditions
Mammalian cells [6]; under certain conditions
  Chromosome aberrations: An increase in chromosome aberrations was observed
Rats [7]
  Inhalation 4 hour ALC: Inhalation 4 hour ALC: >5.0 mg/L in rats
Mammalian cells [8]
  Mutagenicity: not mutagenic
rabbits
  Dermal LD50: > 20,000 mg/kg
[9]
  Toxicity to the fetus: not uniquely toxic to the fetus
Bacterial cells
  Mutagenicity: not mutagenic
[10]
  Eye irritation: not an eye irritant
[11]
  Skin irritation: slight skin irritant
[12]
  Chemical Stability: Chemical Stability: Stable at normal temperatures and storage conditions.
